28 compounds from patent US11780826B2 (Amgen Inc., priority 2017, dated 2023) can be followed below.

Molecules are shown by their SMILES.

In this assay the test system is Bovine cardiac myofibrils. Briefly: In vitro model of dose-dependent myofibril ATPase modulation (AC1.4, pyruvate kinase/lactate dehydrogenase-coupled ATPase assay at pCa25). The class given is biochemical. Particulars: concentration at which ATPase activity was 1.4-fold higher than the bottom of the dose curve, mean of a minimum of two independent tests. The procedure, abridged: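 We measure calcium-buffered ATPase activity of detergent-skinned bovine cardiac myofibrils at pH 6.80 and 22° C with 1 mM ATP, using a PK/LDH-coupled NADH readout at 340 nm. Values come from four-parameter dose-response fits, averaged over at least two independent runs.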
In turn, `CS(=O)(=O)c1cncc(C(=O)N2CSC[C@@H]2C(=O)N[C@@H](c2ccc(C(F)(F)F)cc2F)C2CC2)c1` [Example 342, (4S)-N-((R)-cyclopropyl(2-fluoro-4-(trifluoromethyl)phenyl)methyl)-3-((5-(methylsulfonyl)-3-pyridinyl)carbonyl)-1,3-thiazolidine-4-carboxamide] yielded an AC1.4 of 0.9661 µM.

Turning to `CC(C)C[C@@H](NC(=O)[C@H]1CCCN1C(=O)c1cccc(S(=O)(=O)N2CC(C#N)C2)c1)c1ccc(C(F)(F)F)cc1` [Example 45, 1-(3-((3-cyano-1-azetidinyl)sulfonyl)benzoyl)-N-((1R)-3-methyl-1-(4-(trifluoromethyl)phenyl)butyl)-D-prolinamide], the AC1.4 was found to be 0.0435 µM.

In the case of `N#CC1CN(S(=O)(=O)N2CCC[C@H](C(=O)N3CCOC[C@@H]3C(=O)NCc3ccc(C(F)F)cc3)C2)C1` [Example 448, (3R)-4-(((3S)-1-((3-cyano-1-azetidinyl)sulfonyl)-3-piperidinyl)carbonyl)-N-(4-(difluoromethyl)benzyl)-3-morpholinecarboxamide], the AC1.4 is 1.844 µM.

`N#CC1CN(S(=O)(=O)c2cccc(C(=O)N3CCC[C@@H]3C(=O)N[C@@H](CO)c3ccc(Cl)cc3)c2)C1` [Example 305, N-((1R)-1-(4-chlorophenyl)-2-hydroxyethyl)-1-(3-((3-cyano-1-azetidinyl)sulfonyl)benzoyl)-D-prolinamide] gave an AC1.4 of 0.8013 µM.

The compound `N#C[C@H]1C[C@H](S(=O)(=O)N2CCC[C@H](C(=O)N3CCC[C@@H]3C(=O)NCc3ccc(C(F)(F)F)cc3)C2)C1` [Example 587, 1-(((3S)-1-((trans-3-cyanocyclobutyl)sulfonyl)-3-piperidinyl)carbonyl)-N-(4-(trifluoromethyl)benzyl)-D-prolinamide] came in with an AC1.4 of 3.4385 µM.

For the compound `CC(C)[C@H](NC(=O)[C@H]1CCCN1C(=O)[C@H]1CCCN(S(=O)(=O)N2CC(C#N)C2)C1)c1ccc(C(F)(F)F)cc1F` [Example 229, 1-(((3S)-1-((3-cyano-1-azetidinyl)sulfonyl)-3-piperidinyl)carbonyl)-N-((1S)-1-(2-fluoro-4-(trifluoromethyl)phenyl)-2-methylpropyl)-D-prolinamide], the AC1.4 was 0.5053 µM.

With `CCNc1ccc(S(C)(=O)=O)cc1C(=O)N1CCC[C@@H]1C(=O)N[C@@H](c1ccc(C(F)(F)F)cc1F)C1CC1` [Example 79, N-((R)-cyclopropyl(2-fluoro-4-(trifluoromethyl)phenyl)methyl)-1-(2-(ethylamino)-5-(methylsulfonyl)benzoyl)-D-prolinamide], the AC1.4 was found to be 0.104 µM.

The compound `N#CC1CN(S(=O)(=O)N2CCC[C@H](C(=O)N3CCC[C@@H]3C(=O)NCc3c(F)cccc3C(F)(F)F)C2)C1` [Example 659, 1-(((3S)-1-((3-cyano-1-azetidinyl)sulfonyl)-3-piperidinyl)carbonyl)-N-(2-fluoro-6-(trifluoromethyl)benzyl)-D-prolinamide] gave an AC1.4 of 4.605 µM.

`CC[C@@H](NC(=O)[C@H]1CCCN1C(=O)c1cccc(S(=O)(=O)N(C)C)c1)c1ccc(C(F)(F)F)cc1F` [Example 146, 1-(3-(dimethylsulfamoyl)benzoyl)-N-((1R)-1-(2-fluoro-4-(trifluoromethyl)phenyl)propyl)-D-prolinamide] registered an AC1.4 of 0.2474 µM.

In turn, `N#CC1CN(S(=O)(=O)N2CCC[C@H](C(=O)N3CCC[C@@H]3C(=O)NCc3ccc(Cl)cc3Cl)C2)C1` [Example 99, 1-(((3S)-1-((3-cyano-1-azetidinyl)sulfonyl)-3-piperidinyl)carbonyl)-N-(2,4-dichlorobenzyl)-D-prolinamide] gave an AC1.4 of 0.1484 µM.

In turn, `N#CC1CN(S(=O)(=O)N2CC(C(=O)N3CCC[C@@H]3C(=O)NCc3ccc(C(F)(F)F)cc3)CC(F)(F)C2)C1` (stereo partly drawn) [Example 77, 1-((-1-((3-cyano-1-azetidinyl)sulfonyl)-5,5-difluoro-3-piperidinyl)carbonyl)-N-(4-(trifluoromethyl)benzyl)-D-prolinamide] came in with an AC1.4 of 0.1016 µM.

With `C[C@@H](NC(=O)[C@H]1COCCN1C(=O)[C@H]1CCCN(S(=O)(=O)N2CC(C#N)C2)C1)c1ccc(C(F)(F)F)cc1F` [Example 54, (3R)-4-(((3S)-1-((3-cyano-1-azetidinyl)sulfonyl)-3-piperidinyl)carbonyl)-N-((1R)-1-(2-fluoro-4-(trifluoromethyl)phenyl)ethyl)-3-morpholinecarboxamide], the AC1.4 was found to be 0.0583 µM.

As for `O=C(NCc1ccc(C(F)(F)F)cc1)[C@H]1CCCN1C(=O)c1cccc(S(=O)(=O)N2CC3(CC3)C2)c1` [Example 350, 1-((3-(5-azaspiro[2.3]hex-5-ylsulfonyl)phenyl)carbonyl)-N-(4-(trifluoromethyl)benzyl)-D-prolinamide], the AC1.4 is 1.0349 µM.

Consider `N#CC1CN(S(=O)(=O)N2CCC[C@H](C(=O)N3CCC[C@@H]3C(=O)N[C@@H](c3ccc(Cl)cc3)C(F)(F)F)C2)C1` [Example 308, N-((1S)-1-(4-chlorophenyl)-2,2,2-trifluoroethyl)-1-(((3S)-1-((3-cyano-1-azetidinyl)sulfonyl)-3-piperidinyl)carbonyl)-D-prolinamide], for which the AC1.4 worked out at 0.8085 µM.

In turn, `CS(=O)(=O)c1cccc(C(=O)N2CC[C@H]2C(=O)N[C@@H](c2cc(F)c(Cl)cc2F)C2CC2)c1` [Example 732, (2S)-N-((R)-(4-chloro-2,5-difluorophenyl)(cyclopropyl)methyl)-1-(3-(methylsulfonyl)benzoyl)-2-azetidinecarboxamide] came in with an AC1.4 of 6.7885 µM.

In turn, `N#CC1CN(S(=O)(=O)N2CCC[C@H](C(=O)N3CCOC[C@@H]3C(=O)NCc3ccc(C(F)(F)F)cc3)C2)C1` [Example 109, (3R)-4-(((3S)-1-((3-cyano-1-azetidinyl)sulfonyl)-3-piperidinyl)carbonyl)-N-(4-(trifluoromethyl)benzyl)-3-morpholinecarboxamide] yielded an AC1.4 of 0.1712 µM.

The compound `COc1cc(C(C)NC(=O)[C@H]2CCCN2C(=O)[C@H]2CCCN(S(=O)(=O)N3CC(C#N)C3)C2)ccc1OC(F)F` (stereo partly drawn) [Example 632, (2R)-1-((S)-1-((3-cyanoazetidin-1-yl)sulfonyl)piperidine-3-carbonyl)-N-(1-(4-(difluoromethoxy)-3-methoxyphenyl)ethyl)pyrrolidine-2-carboxamide] came in with an AC1.4 of 4.0915 µM.

Take `N#CC1CN(S(=O)(=O)c2cccc(C(=O)N3CCC[C@@H]3C(=O)NCCn3ccc(C(F)(F)F)n3)c2)C1` [Example 689, 1-((3-((3-cyano-1-azetidinyl)sulfonyl)phenyl)carbonyl)-N-(2-(3-(trifluoromethyl)-1H-pyrazol-1-yl)ethyl)-D-prolinamide]: the AC1.4 stood at 5.334 µM.

On to `NS(=O)(=O)c1cccc(C(=O)N2CC(F)(F)C[C@@H]2C(=O)N[C@@H](c2ccc(C(F)(F)F)cc2F)C2CC2)c1` [Example 446, N-((R)-cyclopropyl(2-fluoro-4-(trifluoromethyl)phenyl)methyl)-4,4-difluoro-1-(3-sulfamoylbenzoyl)-D-prolinamide], for which the AC1.4 turned out to be 1.826 µM.

On to `N#CC1CN(S(=O)(=O)N2CCC[C@H](C(=O)N3CCC[C@@H]3C(=O)NCc3ccc(C(F)(F)F)cc3Cl)C2)C1` [Example 63, N-(2-chloro-4-(trifluoromethyl)benzyl)-1-(((3S)-1-((3-cyano-1-azetidinyl)sulfonyl)-3-piperidinyl)carbonyl)-D-prolinamide], for which the AC1.4 was 0.07385 µM.

As to `Cc1ccc(C)c(CNC(=O)[C@H]2CCCN2C(=O)[C@H]2CCCN(S(=O)(=O)N3CC(C#N)C3)C2)c1` [Example 765, 1-(((3S)-1-((3-cyano-1-azetidinyl)sulfonyl)-3-piperidinyl)carbonyl)-N-(2,5-dimethylbenzyl)-D-prolinamide], the AC1.4 amounted to 7.9325 µM.

As to `N#CC1CN(S(=O)(=O)c2cccc(C(=O)N3CCC[C@@H]3C(=O)NCc3ccc(Cl)cc3)c2)C1` [Example 43, N-(4-chlorobenzyl)-1-((3-((3-cyano-1-azetidinyl)sulfonyl)phenyl)carbonyl)-D-prolinamide], the AC1.4 worked out at 0.04337 µM.

In turn, `C[C@@H](NC(=O)[C@H]1CCCN1C(=O)c1cccc(S(=O)(=O)N2CC3(CC3)C2)c1)c1ccc(C(F)(F)F)cc1` [Example 434] displayed an AC1.4 of 1.66 µM.

Compound `Cc1ccc(CNC(=O)[C@H]2CCCN2C(=O)c2cccc(S(=O)(=O)N3CC(C#N)C3)c2)cc1` [Example 106, 1-((3-((3-cyano-1-azetidinyl)sulfonyl)phenyl)carbonyl)-N-(4-methylbenzyl)-D-prolinamide] had an AC1.4 of 0.164 µM.

In the case of `O=C(NCc1ccc(C(F)(F)F)cc1)[C@H]1CCCN1C(=O)[C@H]1CCCN(S(=O)(=O)N2CC(Oc3ccncc3)C2)C1` [Example 580, 1-(((3S)-1-((3-(4-pyridinyloxy)-1-azetidinyl)sulfonyl)-3-piperidinyl)carbonyl)-N-(4-(trifluoromethyl)benzyl)-D-prolinamide], the AC1.4 came to 3.3545 µM.

With `Cc1ccc(CNC(=O)[C@H]2CCCN2C(=O)c2cccc(S(=O)(=O)N3CC(C#N)C3)c2)nc1` [Example 520, 1-(3-((3-cyano-1-azetidinyl)sulfonyl)benzoyl)-N-((5-methyl-2-pyridinyl)methyl)-D-prolinamide], the AC1.4 is 2.5075 µM.

In turn, `COc1ccc(Cl)cc1CNC(=O)[C@H]1CCCN1C(=O)[C@H]1CCCN(S(=O)(=O)N2CC(C#N)C2)C1` [Example 770, N-(5-chloro-2-methoxybenzyl)-1-(((3S)-1-((3-cyano-1-azetidinyl)sulfonyl)-3-piperidinyl)carbonyl)-D-prolinamide] registered an AC1.4 of 8.1255 µM.

With `O=C(N[C@@H](c1cc(F)c(C(F)(F)F)cc1F)C1CC1)[C@H]1C[C@H]2C[C@H]2N1C(=O)c1cc(C(F)(F)F)ccn1` [Example 289, (1R,3R,5R)-N-((R)-cyclopropyl(2,5-difluoro-4-(trifluoromethyl)phenyl)methyl)-2-((4-(trifluoromethyl)-2-pyridinyl)carbonyl)-2-azabicyclo[3.1.0]hexane-3-carboxamide], the AC1.4 came out at 0.7506 µM.
